Marks after values point to notes of the source that are not given here.

Data set [1] concerns Myeloperoxidase. In words: Scalp tape strip myeloperoxidase protein. The format is in vivo, human. As to the method: (§1) Subjects are enrolled in a double-blind, randomized study for all test groups and have Baseline and Week 3 measurements of scalp health taken for flaking, itch and scalp health endpoints. Subjects take home a test product(s) and are instructed on use of test products throughout the study. Test products are solubilized in a hydroalcoholic leave-on formulation. Azoxystrobin raw material is sourced from AK Scientific Inc. (Union City, Calif.) as >97% pure. Azoxystrobin scalp treatment is prepared from a slurry of azoxystrobin in ethanol that is formulated to 0.1% (w/v) in a base chassis of 50% ethanol, 0.35% Ultrez 21 (rheology modifier), 0.05% neutrol TE and water (q.s.). […] Biomarkers of scalp health, including biomarkers of inflammation, itch, oxidative stress and barrier integrity are assessed by non-invasive tape strip sampling of the scalp surface to determine therapeutic resolution. All biomarkers are analyzed from D-Squame® scalp tape samples that are collected from the scalp of subjects before and after scalp treatment with either azoxystrobin or vehicle (Baseline, and Week 3 respectively). These are extracted and analyzed according to published methods (International Journal of Dermatology 2011, 50, 102-113, incorporated by reference herein). […] Myeloperoxidase protein is analyzed to determine the impact of scalp treatment oxidative stress and potential oxidative damage. […]

The subject of data set [2] is human serum albumin. In words: Scalp tape strip barrier integrity: human serum albumin. The format is in vivo.
Description: Subjects are enrolled in a double-blind, randomized study for all test groups and have Baseline and Week 3 measurements of scalp health taken for flaking, itch and scalp health endpoints. Subjects take home a test product(s) and are instructed on use of test products throughout the study. Test products are solubilized in a hydroalcoholic leave-on formulation. […] Azoxystrobin scalp treatment is prepared from a slurry of azoxystrobin in ethanol that is formulated to 0.1% (w/v) in a base chassis of 50% ethanol, 0.35% Ultrez 21 (rheology modifier), 0.05% neutrol TE and water (q.s.). Vehicle scalp treatment is prepared similarly without the addition of azoxystrobin raw material. Subjects apply either azoxystrobin or vehicle scalp treatments daily for 3 weeks. […] All biomarkers are analyzed from D-Squame® scalp tape samples that are collected from the scalp of subjects before and after scalp treatment with either azoxystrobin or vehicle (Baseline, and Week 3 respectively). […] Data analysis is conducted by standard statistical methods and calculations. […] Biochemical markers of skin/scalp barrier integrity are analyzed to evaluate improvements on barrier health. […] Human skin analytes (keratin 1, keratin 10, human serum albumin) are simultaneously quantified using a 3-plea Human Skin Panel LINCOplex Kit (Millipore Corp.). Soluble protein is measured using the BCA™ Protein Assay Kit. […]
The test system of data set [3] is keratin 1, keratin 10. In words: Scalp tape strip barrier integrity: keratins 1 and 10. It is filed as in vivo, human. On the procedure:
as §1, with “Biochemical markers of skin/scalp barrier integrity are” for “Myeloperoxidase protein is”, “evaluate improvements on barrier health.” for “determine the impact of scalp treatment oxidative stress and potential oxidative damage.”

For data set [4] the following is noted: cited from earlier work.
Setting [5] is: 0.1% leave-on daily, Week 3, scalp tape strips.

For `CO/C=C(/C(=O)OC)c1ccccc1Oc1cc(Oc2ccccc2C#N)ncn1` [Azoxystrobin], in data set [1] (setting [5]), the “Myeloperoxidase Results % Change from Baseline” value is reported as 63.7* %. Besides, the reduction in myeloperoxidase in data set [1] (compared to a placebo control) worked out at 64%. Moreover, the “Human Serum Albumin % Change from Baseline” value in data set [2] (setting [5]) is recorded as −54.1* %. For the same compound, the “reduction in human serum albumin (HSA) changed from a baseline” value in data set [2] (3 weeks of treatment) came out at 54%. Further, in data set [3] (setting [5]), the “Keratins-1,10 % Change from Baseline” value is listed as “+86.0* %”. The “increase in keratins 1 and 10” value in data set [3] (compared to a placebo control) was found to be 86%. For the same compound, the solubility in water entry in data set [4] is listed as “low solubility in water”.
